The EC50 is the concentration at which the effect is half-maximal.

4 compounds from article PMC6213020, “Identification of a Novel PPAR-γ Agonist through a Scaffold Tuning Approach” (International Journal of Molecular Sciences, 2018) can be followed below.

Like-named read-outs stand apart in the source and are kept apart here. Bounds are passed on as bounds.

One assay addresses T1, PPAR-δ (Homo sapiens, UniProt Q03181).
T1 construct: purchased Invitrogen / Thermo Fisher Scientific (assay service)
T1 sequence (Q03181 211-439 limits assumed): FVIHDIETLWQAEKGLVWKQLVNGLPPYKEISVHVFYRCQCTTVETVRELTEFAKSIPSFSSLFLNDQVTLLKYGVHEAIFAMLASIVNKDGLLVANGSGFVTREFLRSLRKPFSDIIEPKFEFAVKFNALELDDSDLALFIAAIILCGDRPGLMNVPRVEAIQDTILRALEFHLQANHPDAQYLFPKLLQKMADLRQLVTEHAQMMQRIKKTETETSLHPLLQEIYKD
The assay is described as follows: TR-FRET LanthaScreen PPAR coactivator recruit assay, PPAR-δ (C33 peptide). The format is biochemical. The source says: (§1) Binding of agonist to the PPAR LBD causes a conformational change around helix 12 in the LBD, resulting in higher affinity for the coactivator peptide. When the terbium label on the anti-GST antibody complexed with PPAR is excited at 340 nm, energy is transferred to the fluorescein label on the coactivator peptide and detected as emission at 520 nm. […] Based on the biology of the PPAR-coactivator peptide interaction, this ligand EC50 is a composite value representing the amount of ligand required to bind to receptor, effect a conformational change, and recruit coactivator peptide. Potency of compounds show similar order to their activity (Table 3). […] Ligands such as TZDs show little or no binding to PPAR-δ. Compound 11 and 15 have ortho or meta substituted benzoic acid as an acidic head group. Their acidic head groups might seem to be too large to fit within the narrow PPAR-δ pocket. In contrast, the compound 1 and 2 contains an acetic acid head group that complements the narrow PPAR-δ ligand binding. […] The potency and selectivity of compound 11 could be explained by harmonization of steric effect of acidic head group, length and rigidity of hydrophobic tail, and properly tuned aromatic linker system.
(§2) EC50 of compounds were determined by recruitment of transcriptional coactivators using the TR-FRET based Lanthascreen coactivator assays (Invitrogen, Carlsbad, CA, USA). Which was serviced by Thermo Fisher Scientific (Medicon, WI, USA) according to the LanthaScreen TR-FRET coregulator protocol and assay conditions. Coregulator peptide PGC1a, TRAP220/DRIP2 and C33 was used for the coactivator recruit assay of PPAR-α, -γ, and -δ, respectively.
For orientation: TR-FRET usually uses a lanthanide donor and a delayed reading to cut background.

Assay [1] has as its target T2, PPAR-γ (Homo sapiens, UniProt P37231).
T2 construct: purchased Invitrogen / Thermo Fisher Scientific (assay service)
T2 sequence (P37231 238-503 limits assumed): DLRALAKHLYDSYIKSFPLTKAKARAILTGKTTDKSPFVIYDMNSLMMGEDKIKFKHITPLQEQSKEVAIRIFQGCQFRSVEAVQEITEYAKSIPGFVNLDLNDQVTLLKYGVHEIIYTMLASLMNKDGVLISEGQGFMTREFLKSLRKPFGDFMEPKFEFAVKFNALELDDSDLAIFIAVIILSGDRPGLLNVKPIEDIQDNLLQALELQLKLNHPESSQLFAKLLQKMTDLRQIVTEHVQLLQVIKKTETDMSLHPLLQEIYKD
Put plainly: TR-FRET LanthaScreen PPAR coactivator recruit assay, PPAR-γ (TRAP220/DRIP2 peptide). It counts as biochemical. As to conditions: for EC50: TR-FRET coactivator recruit assay.
From the text: as §1, §2

Assay [2] addresses T3, PPAR-γ (Homo sapiens, UniProt P37231).
T3 construct: host or cells: CV-1
T3 sequence (P37231 1-505): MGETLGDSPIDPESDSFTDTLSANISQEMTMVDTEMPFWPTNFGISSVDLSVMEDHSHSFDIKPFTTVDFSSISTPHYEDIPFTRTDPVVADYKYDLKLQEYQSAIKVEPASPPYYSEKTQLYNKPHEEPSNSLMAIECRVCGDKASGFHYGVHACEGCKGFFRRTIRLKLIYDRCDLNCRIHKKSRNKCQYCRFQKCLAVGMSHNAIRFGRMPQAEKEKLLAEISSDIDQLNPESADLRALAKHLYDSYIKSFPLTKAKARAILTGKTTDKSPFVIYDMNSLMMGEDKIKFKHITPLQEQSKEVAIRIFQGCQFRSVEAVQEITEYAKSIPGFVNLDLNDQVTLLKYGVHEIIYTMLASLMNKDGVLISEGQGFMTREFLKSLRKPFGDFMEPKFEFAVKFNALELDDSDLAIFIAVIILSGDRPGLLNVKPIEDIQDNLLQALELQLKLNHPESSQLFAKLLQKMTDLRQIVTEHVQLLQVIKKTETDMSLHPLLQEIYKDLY
Put plainly: cell-based PPAR transactivation (luciferase) assay, PPAR-γ. Conditions: for activation at 10 µM: 24 h, compounds 10 µM, relative to maximum activation with pioglitazone (10 µM), PPAR-Luc in CV-1 cells, read-out: % max PPAR-γ. On the procedure:
The PPAR activities of the synthesized dichloroanilide-linked indole analogs were assessed using a standard cell-based transactivation assay in CV-1 cells. GW7647 [42], pioglitazone, and GW0742 [43] were used as positive controls for PPAR-α, -γ, and -δ, respectively. These three positive controls presented the maximum activation for each PPAR subtype. The activity of the compounds was presented as the activation percentage (%) relative to the maximum values of the positive controls at the indicated concentrations.
Transient transfection and luciferase assay was carried out. CV-1 cells were seeded in 48-well plates at a density of 1.5 × 10^5 cells/well in Dulbecco’s modified Eagle’s medium (DMEM) with containing 10% fetal bovine serum (FBS). The cells were transiently transfected with plasmid mixtures containing PPAR-α/γ expression vector and tk-PPRE-luciferase (Luc) vector for 6 h and then treated with the samples for 24 h. HEK293t cells were seeded in a 60-mm dish at a density of 1.5 × 10^6 cells/dish. After transfection with the plasmid mixtures containing PPAR-δ expression vector and Luc vector for 6 h, the cells were transferred to a 96-well plate and treated with the samples. To normalize the transfection efficiency, a β-galactosidase plasmid was cotransfected. The luciferase activity in the cell lysates was measured using a luciferase assay system (Promega Corp., Madison, WI, USA), and the β-galactosidase activity was determined by measuring the absorbance at 410 nm using an ELISA plate reader. The data were expressed as the relative luciferase activity divided by the β-galactosidase activity. All constructs were kindly gifted by Dr. Ronald M. Evans at The Salk Institute (La Jolla, CA, USA).

With `O=C(COc1ccc2c(c1)c(Cc1ccccc1)cn2Cc1ccccc1C(=O)O)Nc1ccc(Cl)cc1Cl` [Compound 18, 2-((3-Benzyl-5-(2-((2,4-dichlorophenyl)amino)-2-oxoethoxy)-1H-indol-1-yl)methyl)benzoic acid], the figures for the EC50 at PPAR-δ and at PPAR-γ [1] (read-out: EC50 PPAR-γ) were 28.1 µM and > 11.1 µM, respectively. Besides, on PPAR-γ [2], the activation at 10 µM turned out to be 93.2 ± 0.59%.
For `O=C(COc1ccc2ccn(Cc3ccccc3C(=O)O)c2c1)Nc1ccc(Cl)cc1Cl` [Compound 13, 2-((6-(2-((2,4-Dichlorophenyl)amino)-2-oxoethoxy)-1H-indol-1-yl)methyl)benzoic acid], in that order: > 100 µM, 0.571 µM and 74.5 ± 0.94%.
As to `O=C(COc1ccc2ccn(Cc3cccc(C(=O)O)c3)c2c1)Nc1ccc(Cl)cc1Cl` [Compound 15, 3-((6-(2-((2,4-Dichlorophenyl)amino)-2-oxoethoxy)-1H-indol-1-yl)methyl)benzoic acid], the EC50 was > 100 µM at PPAR-δ, 0.0326 µM on PPAR-γ [1] (read-out: EC50 PPAR-γ) and 0.0323 µM at PPAR-γ [1] (read-out: EC50 to PPAR-γ). Also, the activation at 10 µM on PPAR-γ [2] came out at 126.5 ± 0.92%.
In the case of `O=C(COc1ccc2c(ccn2Cc2ccccc2C(=O)O)c1)Nc1ccc(Cl)cc1Cl` [Compound 12, 2-((5-(2-((2,4-Dichlorophenyl)amino)-2-oxoethoxy)-1H-indol-1-yl)methyl)benzoic acid], the response at PPAR-δ was half-maximal at 32.6 µM (EC50). Further, the EC50 on PPAR-γ [1] (read-out: EC50 PPAR-γ) was found to be 0.00196 µM. Further, at PPAR-γ [1] (from coactivator recruit EC50), the “selectivity for PPAR-γ to PPAR-α” value is recorded as 1,970 fold and the “selectivity for PPAR-γ to PPAR-δ” value was 16,600 fold. Also, the activation at 10 µM on PPAR-γ [2] stood at 189.2 ± 1.67%. Further, the “PPAR-γ activity relative to that of pioglitazone” value on PPAR-γ [2] (cell-based reporter assay) is on record as “approximately 2 fold”.
